Test results as given in patent publication US20250163029A1, “PYRIDONE OR PYRIMIDONE DERIVATIVE AND APPLICATION THEREOF” (Medshine Discovery Inc., priority 2022, published 2025).
Structures can show the parent of a compound that is named as a salt.

Experiments:
[1] = system: novel coronavirus βCoV/KOR/KCDC03/2020 strain; test: In vitro anti-novel coronavirus activity in Vero cells; format: cell-based, SARS-CoV-2; details: Severe acute respiratory syndrome coronavirus 2, Vero, 24 h
[2] = system: plasma protein; test: Plasma protein binding rate (PPB), CD-1 mice; format: in vitro ADME; details: 2 μM, 4 hours dialysis
Method: (§1) 597 μL of blank plasma from CD-1 mice, SD rats, beagle dogs, cynomolgus monkeys and humans were weighed, and the working solution of the assay compound or the working solution of warfarin was added, so that the final concentration of the assay compound and warfarin in the plasma sample was 2 μM. The samples were mixed thoroughly. The final concentration of DMSO as an organic phase was 0.5%; 50 μL of the assay compound and warfarin plasma samples were pipetted into a sample receiving plate, and the corresponding volume of blank plasma or buffer was immediately added, so that the final volume of each sample well was 100 μL, and the volume ratio of plasma:dialysis buffer was 1:1, and then the stop solution was added to these samples. The samples were used as the To sample for recovery and stability determination. The assay compound and warfarin plasma samples were added to the dosing end of each dialysis well, and blank dialysis buffer was added to the receiving end corresponding to the dialysis well. Then the dialysis plate was sealed with a gas permeable membrane and placed in a humidified 5% CO2 incubator, and incubated with shaking at 37° C. and 100 rpm for 4 hours. […] After protein precipitation, all samples were analyzed by LC/MS/MS, and the free rate (% Unbound) of the compound was calculated by the following formula: […]

[3] = system: plasma protein; test: Plasma protein binding rate (PPB), SD rats; format: in vitro ADME; details: 2 μM, 4 hours dialysis
Method: as §1

[4] = Pharmacokinetic (PK) assay in mice; format: in vivo, C57BL6/J strain mice; details: C57BL6/J, plasma; for AUC: mouse
Method: (§2) Objective of assay: The druggability of compounds was evaluated by measuring their pharmacokinetic properties in different animal species.
(§3) Assay Materials: C57BL6/J strain mice, Sprague-Dawley strain rats and beagle dogs.
(§4) The pharmacokinetic characteristics of the compound after intravenous and oral administration were assayed in animals using a standard protocol. In the assay, the candidate compound was prepared into a clear solution (intravenous injection) or a homogeneous suspension (oral administration) and administrated to the animal once. Whole blood samples were collected within 24 hours, and centrifuged at 3200 g for 10 minutes. The supernatant was separated to obtain a plasma sample. The blood concentration was quantitatively analyzed by LC-MS/MS analysis method, and pharmacokinetic parameters such as peak concentration, time to peak, clearance rate, half-life, and area under the drug-time curve were calculated.

[5] = in vivo; parameters: species or system beagle dogs; details: beagle, dog
Method: as §2, §3, §4

[6] = system: coronavirus OC43; test: Efficacy on suckling mice infected with coronavirus; format: in vivo, Suckling mice (C57BL6/J strain); details: intraperitoneal, once a day day 0 to day 6
Method: Objective of assay: The in vivo antiviral activity of the compound against coronavirus was evaluated by observing the percentage of weight change and survival rate of the assay animals in a suckling mouse model infected with coronavirus (COV). The mouse infection model is widely used to determine the protective effect of the compound on virus-infected animals to reflect the antiviral activity of the compound.
Suckling mice (C57BL6/J strain) were inoculated with virus (coronavirus OC43) by intranasal drops on day 0, with an inoculation dose of 3500 p.f.u./mouse. From day 0 to day 6, the mice were treated with a vehicle (5% DMSO+40% polyethylene glycol 400+55% water) or 12.5 mpk or 25 mpk of the compound of the present disclosure for 7 consecutive days, once a day, by intraperitoneal injection, for a total of 7 times, with the first administration time being 2 hours before virus inoculation. The animals were continuously observed from day 0 to day 14, and the body weight, health and survival status were recorded.

For `Cn1cnc(Cc2cn(Cc3cc(F)c(F)cc3F)c(Nc3cc4cn(C)nc4cc3Cl)nc2=O)n1` [Compound 4 hydrochloride], the EC50 [1] was 52 nM, the “PPB_Unbound (%)” value [2] was 2.8% and the “PPB_Unbound (%)” value [3] was 4.5%. For the same compound, the AUC ([4]; iv, 1 mg/kg, IV, 1 mpk, read-out: AUC) was 32.8 µM·h, the AUC ([4]; iv, 1 mg/kg, IV, 1 mpk, read-out: AUCfree) was 0.92 µM·h and the AUC ([4]; po, 5 mg/kg, PO, 5 mpk, read-out: AUC) was 145 µM·h. It also gave an AUC ([4]; po, 5 mg/kg, PO, 5 mpk, read-out: AUCfree) of 4.1 µM·h, a Vd ([4]; 1 mg/kg, Mouse, IV, 1 mpk) of 0.23 L/kg and a clearance ([4]; 1 mg/kg, Mouse, IV, 1 mpk) of 0.98 mL/min/kg. For the same compound, the half-life ([4]; 1 mg/kg, Mouse, IV, 1 mpk) was 2.6 h, the Cmax ([4]; 5 mg/kg, Mouse, PO, 5 mpk) was 31 µM and the Tmax ([4]; 5 mg/kg, Mouse, PO, 5 mpk) was 0.75 h. The bioavailability ([4]; 5 mg/kg, Mouse, PO, 5 mpk) was 88%, the half-life ([4]; 5 mg/kg, Mouse, PO, 5 mpk) was 2.7 h and the Vd ([5]; iv, 0.1 mg/kg) was 2.5 L/kg. The clearance ([5]; iv, 0.1 mg/kg) was 7.2 mL/min/kg, the half-life ([5]; iv, 0.1 mg/kg) was 6.2 h and the AUC ([5]; iv, 0.1 mg/kg, AUC) was 0.504 µM·h. The AUC ([5]; iv, 0.1 mg/kg, AUCfree) was 0.12 µM·h, the Cmax ([5]; po, 0.5 mg/kg) was 0.27 µM and the Tmax ([5]; po, 0.5 mg/kg) was 3 h. It also gave a bioavailability ([5]; po, 0.5 mg/kg) of 121%, a half-life ([5]; po, 0.5 mg/kg) of 9.5 h and an AUC ([5]; po, 0.5 mg/kg, AUC) of 3.1 µM·h. For the same compound, the AUC ([5]; po, 0.5 mg/kg, AUCfree) was 0.74 µM·h, the Survival rate ([6]; 12.5 mpk, Day 1) was 100% and the “Weight changes (Percent of starting body weight)” value ([6]; 12.5 mpk, Day 1) was 5.35 ± 0.58% of starting body weight. The Survival rate ([6]; 12.5 mpk, Day 2) was 100%, the “Weight changes (Percent of starting body weight)” value ([6]; 12.5 mpk, Day 2) was 14.57 ± 1.37% of starting body weight and the Survival rate ([6]; 12.5 mpk, Day 3) was 100%. For the same compound, the “Weight changes (Percent of starting body weight)” value ([6]; 12.5 mpk, Day 3) was 22.55 ± 1.37% of starting body weight, the Survival rate ([6]; 12.5 mpk, Day 4) was 100% and the “Weight changes (Percent of starting body weight)” value ([6]; 12.5 mpk, Day 4) was 30.95 ± 1.19% of starting body weight. The Survival rate ([6]; 12.5 mpk, Day 5) was 100%, the “Weight changes (Percent of starting body weight)” value ([6]; 12.5 mpk, Day 5) was 39.15 ± 1.15% of starting body weight and the Survival rate ([6]; 12.5 mpk, Day 6) was 100%. The “Weight changes (Percent of starting body weight)” value ([6]; 12.5 mpk, Day 6) was 42.61 ± 1.80% of starting body weight, the Survival rate ([6]; 12.5 mpk, Day 7) was 100% and the “Weight changes (Percent of starting body weight)” value ([6]; 12.5 mpk, Day 7) was 49.30 ± 2.16% of starting body weight. The Survival rate ([6]; 12.5 mpk, Day 8) was 100%, the “Weight changes (Percent of starting body weight)” value ([6]; 12.5 mpk, Day 8) was 55.56 ± 2.05% of starting body weight and the Survival rate ([6]; 12.5 mpk, Day 9) was 100%. The “Weight changes (Percent of starting body weight)” value ([6]; 12.5 mpk, Day 9) was 57.80 ± 4.27% of starting body weight, the Survival rate ([6]; 12.5 mpk, Day 10) was 100% and the “Weight changes (Percent of starting body weight)” value ([6]; 12.5 mpk, Day 10) was 60.74 ± 6.34% of starting body weight. The Survival rate ([6]; 12.5 mpk, Day 11) was 100%, the “Weight changes (Percent of starting body weight)” value ([6]; 12.5 mpk, Day 11) was 60.39 ± 8.87% of starting body weight and the Survival rate ([6]; 12.5 mpk, Day 12) was 100%. The “Weight changes (Percent of starting body weight)” value ([6]; 12.5 mpk, Day 12) was 65.10 ± 10.85% of starting body weight, the Survival rate ([6]; 12.5 mpk, Day 13) was 100% and the “Weight changes (Percent of starting body weight)” value ([6]; 12.5 mpk, Day 13) was 76.18 ± 9.69% of starting body weight. The Survival rate ([6]; 12.5 mpk, Day 14) was 100%, the “Weight changes (Percent of starting body weight)” value ([6]; 12.5 mpk, Day 14) was 96.72 ± 10.96% of starting body weight and the Survival rate ([6]; 25 mpk, Day 1) was 100%. The “Weight changes (Percent of starting body weight)” value ([6]; 25 mpk, Day 1) was 6.45 ± 1.94% of starting body weight, the Survival rate ([6]; 25 mpk, Day 2) was 100% and the “Weight changes (Percent of starting body weight)” value ([6]; 25 mpk, Day 2) was 12.35 ± 1.74% of starting body weight. For the same compound, the Survival rate ([6]; 25 mpk, Day 3) was 100%, the “Weight changes (Percent of starting body weight)” value ([6]; 25 mpk, Day 3) was 22.61 ± 2.41% of starting body weight and the Survival rate ([6]; 25 mpk, Day 4) was 100%. For the same compound, the “Weight changes (Percent of starting body weight)” value ([6]; 25 mpk, Day 4) was 28.78 ± 2.69% of starting body weight, the Survival rate ([6]; 25 mpk, Day 5) was 100% and the “Weight changes (Percent of starting body weight)” value ([6]; 25 mpk, Day 5) was 34.72 ± 2.23% of starting body weight. For the same compound, the Survival rate ([6]; 25 mpk, Day 6) was 100%, the “Weight changes (Percent of starting body weight)” value ([6]; 25 mpk, Day 6) was 39.95 ± 2.01% of starting body weight and the Survival rate ([6]; 25 mpk, Day 7) was 100%. The “Weight changes (Percent of starting body weight)” value ([6]; 25 mpk, Day 7) was 45.35 ± 2.00% of starting body weight, the Survival rate ([6]; 25 mpk, Day 8) was 100% and the “Weight changes (Percent of starting body weight)” value ([6]; 25 mpk, Day 8) was 49.97 ± 1.91% of starting body weight. For the same compound, the Survival rate ([6]; 25 mpk, Day 9) was 100%, the “Weight changes (Percent of starting body weight)” value ([6]; 25 mpk, Day 9) was 55.69 ± 2.31% of starting body weight and the Survival rate ([6]; 25 mpk, Day 10) was 100%. For the same compound, the “Weight changes (Percent of starting body weight)” value ([6]; 25 mpk, Day 10) was 62.00 ± 2.26% of starting body weight, the Survival rate ([6]; 25 mpk, Day 11) was 100% and the “Weight changes (Percent of starting body weight)” value ([6]; 25 mpk, Day 11) was 72.13 ± 3.02% of starting body weight. The Survival rate ([6]; 25 mpk, Day 12) was 100%, the “Weight changes (Percent of starting body weight)” value ([6]; 25 mpk, Day 12) was 87.49 ± 3.63% of starting body weight and the Survival rate ([6]; 25 mpk, Day 13) was 100%. For the same compound, the “Weight changes (Percent of starting body weight)” value ([6]; 25 mpk, Day 13) was 95.42 ± 4.90% of starting body weight, the Survival rate ([6]; 25 mpk, Day 14) was 100% and the “Weight changes (Percent of starting body weight)” value ([6]; 25 mpk, Day 14) was 118.37 ± 5.15% of starting body weight.
